Like-named read-outs stand apart in the source and are kept apart here.
Columns and labels:
[1] = Ex vivo biodistribution in tumor-bearing nude mice (non-tumor tissues); settings: male, Balb/cAnNRj-Foxn1nu/nu (nude), mouse, iv, total radioactivity, ex vivo after PET/CT scan, i.v., n = 3
Method: (§1) For the evaluation of the in vivo pharmacokinetics, the two most promising HBPLs—[^18F]2 with the highest affinity to both target receptors and [^18F]4 with the highest hydrophilicity and still reasonable binding affinities—were selected. For PET/CT imaging, 6-week-old male nude mice (Balb/cAnNRj-Foxn1^nu/nu) were subcutaneously injected with 5 × 10^5 B16F10 cells into the right flank and 2.0–2.5 × 10^6 U87MG cells into the left flank to generate the respective receptor-positive tumors. When the tumors reached a sufficient size for imaging, each mouse was administered 4.15 ± 2.28 MBq of [^18F]2 or 3.95 ± 2.06 MBq of [^18F]4 via the lateral tail vein under isoflurane anesthesia. To determine the receptor specificity of both peptide parts of the labeled HBPLs and their relative contribution to overall tumor uptake, blocking experiments were also performed. […] After i.v. injection of the tracers, a dynamic PET scan, followed by a CT scan, was performed. The resulting PET/CT images and time–activity curves (TACs) are depicted in Figure 6, Figure 7 and Figure 8. After completion of the diagnostic scans, the mice were sacrificed, their organs (blood, spleen, liver, kidney, pancreas, lung, heart, brain, bone, muscle, tail, tumors, stomach, colon and small intestine) were collected and measured in a γ-counter for ex vivo biodistribution (see Supplementary Materials Table S1 for detailed results).
(§2) Each male nude mouse (six weeks old) was injected subcutaneously with 5 × 10^5 B16F10 cells into the right flank and 2.0–2.5 × 10^6 U87MG cells into the left flank. The health status and tumor growth of the mice were monitored regularly until the animals could be examined after 15–21 days, depending on the tumor size. For the in vivo experiments, the ^18F-radiolabeled compound was diluted in 0.9% saline to give a final EtOH concentration of <10%. Each mouse was injected with 4.15 ± 2.28 MBq of [^18F]2 or 3.95 ± 2.06 MBq of [^18F]4 via the lateral tail vein under isoflurane anesthesia. […] Each ^18F-labeled compound was studied with or without blocking in at least three mice. Mice were measured under isoflurane anesthesia in a small PET/SPECT/CT animal imaging system. First, a dynamic PET scan was performed over 90 min and the scan was framed in 29 timeframes (10 × 1 min, 10 × 2 min, 6 × 5 min, 3 × 10 min). Images were reconstructed using 12 iterations, a maximum likelihood expectation maximization (MLEM) algorithm including corrections for scattered radiation and decay and a voxel size of 0.5 mm. All PET scans were immediately followed by CT acquisition at a voltage of 45 kV and a current of 400 μA. The images were reconstructed using the filtered back projection (FBP) algorithm with a voxel size of 250 μm. The analysis of the data, including the generation of TACs of the kidneys, liver and tumors and the MIPs, was performed via PMOD (v3.8). For ex vivo biodistribution, the mice were sacrificed directly after the PET/CT scan. Organs (blood, spleen, liver, kidneys, pancreas, lungs, heart, brain, bone, muscle, tail, tumors, stomach, colon and small intestine) were collected, weighed and their radioactivity measured in a γ-counter. The percentage injected dose per gram (% ID/g) of each tissue was calculated from the determined values, organ weights, reference values and injected activity.

B16F10 and U87MG tumors = test: In vivo dynamic PET/CT imaging and time–activity curves; design: species or system nude mice (Balb/cAnNRj-Foxn1nu/nu)
Method: as §1
Briefly, 4–5-week-old male nude mice (Balb/cAnNRj-Foxn1^nu/nu) were obtained from Janvier. A dynamic PET scan over 90 min and a subsequent CT image over 20 min were acquired using a triple-modality Bruker Albira II small-animal PET/CT/SPECT scanner. Three animals were studied per group.
as §2

[2] = test system: MC1R-positive B16F10 tumors; test: Ex vivo biodistribution: uptake in B16F10 tumors and tumor-to-organ ratios; design: species or system nude mice (Balb/cAnNRj-Foxn1nu/nu); settings: NDP blocking (20 μg coinjected); ex vivo after PET/CT scan; i.v.; n = 3
Method: as §1, §2

[3] = as above; design: species or system nude mice (Balb/cAnNRj-Foxn1nu/nu); settings: male, Balb/cAnNRj-Foxn1nu/nu (nude), mouse, iv, total radioactivity; for tissue uptake: B16F10 tumor (MC1R-positive); for tissue to tissue ratio: ex vivo biodistribution, mean (n = 3) ± SD
Method: as §1, §2

## CCCC[C@H](NC(=O)CNC(=O)CNC(=O)CCOCCOCCOCCOCCOCCOCCOCCOCCOCCC(=O)NCCCN(CCCNC(=O)CCOCCOCCOCCOCCOCCOCCOCCOCCOCCC(=O)NCCCC[C@@H]1NC(=O)[C@@H](Cc2ccccc2)NC(=O)[C@H](CC(=O)O)NC(=O)CNC(=O)[C@H](CCCNC(=N)N)NC1=O)CC(=O)N[C@@H](CCCCNC(=O)CCC[N+](C)(C)Cc1ccc([Si](F)(C(C)(C)C)C(C)(C)C)cc1)C(N)=O)C(=O)N[C@H]1CC(=O)NCCCC[C@@H](C(N)=O)NC(=O)[C@H](Cc2c[nH]c3ccccc23)NC(=O)[C@H](CCCNC(=N)N)NC(=O)[C@@H](Cc2ccccc2)NC(=O)[C@H](Cc2c[nH]cn2)NC1=O [[^18F]4]
[1]; muscle, double blocking (NDP + c(RGDyK)), read-out: ID/g, muscle
  tissue uptake at 1.5 h: 2.58 ± 1.28 %ID/g
[1]; muscle, without blocking, read-out: ID/g, muscle
  tissue uptake at 1.5 h: 0.07 ± 0.02 %ID/g
[1]; pancreas, NDP blocking (20 μg coinjected), read-out: ID/g, pancreas
  tissue uptake at 1.5 h: 0.52 ± 0.12 %ID/g
[1]; pancreas, c(RGDyK) blocking (200 μg coinjected), read-out: ID/g, pancreas
  tissue uptake at 1.5 h: 0.66 ± 0.19 %ID/g
[1]; pancreas, double blocking (NDP + c(RGDyK)), read-out: ID/g, pancreas
  tissue uptake at 1.5 h: 0.32 ± 0.04 %ID/g
[1]; pancreas, without blocking, read-out: ID/g, pancreas
  tissue uptake at 1.5 h: 0.25 ± 0.08 %ID/g
[1]; small intestine, NDP blocking (20 μg coinjected), read-out: ID/g, small intestine
  tissue uptake: 1.6 ± 0.26 %ID/g
[1]; small intestine, c(RGDyK) blocking (200 μg coinjected), read-out: ID/g, small intestine
  tissue uptake: 1.46 ± 0.53 %ID/g
[1]; small intestine, double blocking (NDP + c(RGDyK)), read-out: ID/g, small intestine
  tissue uptake: 0.54 ± 0.08 %ID/g
[1]; small intestine, without blocking, read-out: ID/g, small intestine
  tissue uptake: 0.07 ± 0.02 %ID/g
[1]; spleen, NDP blocking (20 μg coinjected), read-out: ID/g, spleen
  tissue uptake: 1.51 ± 0.15 %ID/g
[1]; spleen, c(RGDyK) blocking (200 μg coinjected), read-out: ID/g, spleen
  tissue uptake: 1.71 ± 0.62 %ID/g
[1]; spleen, double blocking (NDP + c(RGDyK)), read-out: ID/g, spleen
  tissue uptake: 0.69 ± 0.1 %ID/g
[1]; spleen, without blocking, read-out: ID/g, spleen
  tissue uptake: 1.79 ± 0.31 %ID/g
[1]; stomach, NDP blocking (20 μg coinjected), read-out: ID/g, stomach
  tissue uptake: 1.03 ± 0.11 %ID/g
[1]; stomach, c(RGDyK) blocking (200 μg coinjected), read-out: ID/g, stomach
  tissue uptake: 0.99 ± 0.16 %ID/g
[1]; stomach, double blocking (NDP + c(RGDyK)), read-out: ID/g, stomach
  tissue uptake: 0.42 ± 0.03 %ID/g
[1]; stomach, without blocking, read-out: ID/g, stomach
  tissue uptake: 0.38 ± 0.13 %ID/g
[1]; tail, NDP blocking (20 μg coinjected), read-out: ID/g, tail
  tissue uptake at 1.5 h: 52.8 ± 5.59 %ID/g
[1]; tail, c(RGDyK) blocking (200 μg coinjected), read-out: ID/g, tail
  tissue uptake at 1.5 h: 44.3 ± 12.1 %ID/g
[1]; tail, double blocking (NDP + c(RGDyK)), read-out: ID/g, tail
  tissue uptake: 55.6 ± 7.12 %ID/g
[1]; tail, without blocking, read-out: ID/g, tail
  tissue uptake at 1.5 h: 25.3 ± 8.43 %ID/g
B16F10 and U87MG tumors; PET/CT scans, MIPs 50–90 min post-injection
  visualization of B16F10 and U87MG tumors by PET/CT: clearly visualize
B16F10 and U87MG tumors; dynamic PET over 90 min, i.v.
  time at which uptakes in kidneys and liver reached their maximum (TACs): 5 to 10 min
B16F10 and U87MG tumors; dynamic PET over 90 min, i.v., B16F10 and U87MG tumors
  time at which the curves of both tumors approached a plateau (TACs): about 70 min
[2]
  ID/g, B16F10 tumor: 1.33 ± 0.27 % ID/g
[3]; NDP blocking (20 μg coinjected), ex vivo after PET/CT scan, i.v., n = 3
  tissue uptake: 1.33 ± 0.27 %ID/g
[3]; c(RGDyK) blocking (200 μg coinjected), ex vivo after PET/CT scan, i.v., n = 3
  tissue uptake: 2.29 ± 0.24 %ID/g
[3]; double blocking (NDP + c(RGDyK)), ex vivo after PET/CT scan, i.v., n = 3
  tissue uptake: 2.49 ± 0.09 %ID/g
[3]; without blocking, ex vivo after PET/CT scan, i.v., n = 3
  tissue uptake: 2.58 ± 0.86 %ID/g
[3]; B16F10 tumor / blood, without blocking, read-out: tumor/blood ratio, B16F10
  tissue to tissue ratio: 4.36 ± 1.37
[3]; B16F10 tumor / kidneys, without blocking, read-out: tumor/kidneys ratio, B16F10
  tissue to tissue ratio: 0.38 ± 0.24
[3]; B16F10 tumor / liver, without blocking, read-out: tumor/liver ratio, B16F10
  tissue to tissue ratio: 0.36 ± 0.23
[3]; B16F10 tumor / muscle, without blocking, read-out: tumor/muscle ratio, B16F10
  tissue to tissue ratio: 38.6 ± 9.24
[3]; B16F10 tumor, without blocking, ex vivo after PET/CT scan, i.v., n = 3
  tissue uptake at 1.5 h: 2.58 ± 0.86 %ID/g

Reference: paper PMC8228600, “Design, Synthesis, In Vitro and In Vivo Evaluation of Heterobivalent SiFAlin-Modified Peptidic Radioligands Targeting Both Integrin αvβ3 and the MC1 Receptor—Suitable for the Specific Visualization of Melanomas?” (Pharmaceuticals, 2021)
